Laboratory results from patent US11021493B2, “1,4-thiazine dioxide and 1,2,4-thiadiazine dioxide derivatives as beta-secretase inhibitors and methods of use” (AMGEN INC., priority 2016, dated 2021).

Legend:
BACE1 [1] = target: T1, BACE1 (Homo sapiens (Human), UniProt P56817); assay: In vitro enzymatic BACE1 FRET assay; assay type: biochemical; details: read-out: BACE1 Enzyme IC50
Target sequence in this assay (P56817 46-501): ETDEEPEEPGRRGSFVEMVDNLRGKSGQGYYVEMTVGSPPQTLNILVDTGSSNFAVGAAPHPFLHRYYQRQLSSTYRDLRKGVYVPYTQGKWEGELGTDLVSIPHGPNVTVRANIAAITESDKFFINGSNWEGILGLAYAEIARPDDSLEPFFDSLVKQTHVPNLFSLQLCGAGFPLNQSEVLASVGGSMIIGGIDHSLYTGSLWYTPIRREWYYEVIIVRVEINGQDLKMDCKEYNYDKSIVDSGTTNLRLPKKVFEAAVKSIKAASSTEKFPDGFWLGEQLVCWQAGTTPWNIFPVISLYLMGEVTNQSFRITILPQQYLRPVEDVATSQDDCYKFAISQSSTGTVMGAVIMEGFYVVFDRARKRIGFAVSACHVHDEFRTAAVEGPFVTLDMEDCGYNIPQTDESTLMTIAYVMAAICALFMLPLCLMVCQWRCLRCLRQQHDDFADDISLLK

BACE1 [2] = target: T1, BACE1; assay: In vitro BACE1 cell-based assay (Aβ40 in conditioned medium of cells stably expressing APP, HTRF); details: Aβ40 in conditioned media after 24 h incubation
Target sequence in this assay (P56817 46-501, species assumed): as the sequence (P56817 46-501) above

human recombinant BACE2 = human recombinant BACE2 (Homo sapiens (Human), UniProt Q9Y5Z0); assay: In vitro enzymatic BACE2 FRET assay; assay type: biochemical; details: read-out: BACE2 Enzyme IC50
Cathepsin D (CatD) = Cathepsin D (CatD) (Homo sapiens (Human), UniProt P07339); assay: In vitro enzymatic Cathepsin D (CatD) FRET assay; assay type: biochemical; details: read-out: Cat D Enzyme IC50
Chain of Cathepsin D (CatD) (P07339 65-412, species assumed): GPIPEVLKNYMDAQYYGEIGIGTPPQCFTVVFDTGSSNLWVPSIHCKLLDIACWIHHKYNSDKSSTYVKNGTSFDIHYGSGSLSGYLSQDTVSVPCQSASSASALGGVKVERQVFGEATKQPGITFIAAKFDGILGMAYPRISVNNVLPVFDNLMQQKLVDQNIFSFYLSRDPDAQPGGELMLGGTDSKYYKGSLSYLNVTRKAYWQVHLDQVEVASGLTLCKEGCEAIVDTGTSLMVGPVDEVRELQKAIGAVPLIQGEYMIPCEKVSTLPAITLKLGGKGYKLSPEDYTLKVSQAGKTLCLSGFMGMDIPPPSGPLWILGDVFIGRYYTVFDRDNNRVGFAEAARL

Chain of human recombinant BACE2 (Q9Y5Z0 63-518): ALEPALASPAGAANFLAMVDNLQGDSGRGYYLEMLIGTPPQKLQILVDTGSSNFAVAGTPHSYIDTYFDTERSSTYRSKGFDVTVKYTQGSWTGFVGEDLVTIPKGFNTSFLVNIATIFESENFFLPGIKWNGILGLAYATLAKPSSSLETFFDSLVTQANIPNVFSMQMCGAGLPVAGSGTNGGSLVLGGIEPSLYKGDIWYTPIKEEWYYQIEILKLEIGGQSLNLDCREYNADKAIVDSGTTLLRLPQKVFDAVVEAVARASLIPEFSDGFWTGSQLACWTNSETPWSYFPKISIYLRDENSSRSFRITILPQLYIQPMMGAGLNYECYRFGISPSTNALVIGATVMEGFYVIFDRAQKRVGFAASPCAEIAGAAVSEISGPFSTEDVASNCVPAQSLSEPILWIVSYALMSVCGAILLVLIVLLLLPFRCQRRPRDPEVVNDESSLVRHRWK

| Structure (SMILES) | IC50 (BACE1 [1]) | IC50 (BACE1 [2]) | IC50 (human recombinant BACE2) | IC50 (Cathepsin D (CatD)) |
| --- | --- | --- | --- | --- |
| COC(C)COc1cnc(/C(F)=C/c2ccc(F)c([C@]3(C)CS(=O)(=O)N(C)C(N)=N3)c2)cn1 (stereo partly drawn) [Example 172, (R)-3-amino-5-(2-fluoro-5-((Z)-2-fluoro-2-(5-(2-methoxypropoxy)pyrazin-2-yl)vinyl)phenyl)-2,5-dimethyl-5,6-dihydro-2H-1,2,4-thiadiazine 1,1-dioxide] | 25 nM | 23 nM | 84 nM | 67600 nM |
| C#CCOc1cnc(/C(F)=C/c2ccc(F)c([C@]3(C)CS(=O)(=O)C4(CCC4)C(N)=N3)c2)cn1 [Example 149, (R,Z)-9-amino-7-(2-fluoro-5-(2-fluoro-2-(5-(prop-2-yn-1-yloxy)pyrazin-2-yl)vinyl)phenyl)-7-methyl-5-thia-8-azaspiro[3.5]non-8-ene 5,5-dioxide] | 2 nM | 3 nM | 51 nM | 110000 nM |
| C=CCOc1cnc(/C(F)=C/c2ccc(F)c([C@@]3(C)N=C(N)[C@@]4(CF)CC[C@@H]3S4(=O)=O)c2)cn1 [Example 125, (1R,4R,5S)-4-(5-((Z)-2-(5-(allyloxy)pyrazin-2-yl)-2-fluorovinyl)-2-fluorophenyl)-2-amino-1-(fluoromethyl)-4-methyl-8-thia-3-azabicyclo[3.2.1]oct-2-ene 8,8-dioxide] | 48 nM | 446 nM | 163 nM | 91200 nM |
| CC1(C)C(N)=N[C@](C)(c2cc(/C=C(\F)c3cnc(OCCn4ccnc4)cn3)ccc2F)CS1(=O)=O [Example 155, (R,Z)-3-(5-(2-(5-(2-(1H-imidazol-1-yl)ethoxy)pyrazin-2-yl)-2-fluorovinyl)-2-fluorophenyl)-5-amino-3,6,6-trimethyl-3,6-dihydro-2H-1,4-thiazine 1,1-dioxide] | 5140 nM | 985 nM | 2390 nM | 440000 nM |
| C[C@]1(c2cc(/C=C(\F)c3cnc(OCC4CCC4)cn3)ccc2F)N=C(N)[C@@]2(CF)CC[C@@H]1S2(=O)=O [Example 132, (1R,4R,5S)-2-amino-4-(5-((Z)-2-(5-(cyclobutylmethoxy)pyrazin-2-yl)-2-fluorovinyl)-2-fluorophenyl)-1-(fluoromethyl)-4-methyl-8-thia-3-azabicyclo[3.2.1]oct-2-ene 8,8-dioxide] | 38 nM | 1960 nM | 217 nM | > 400000 nM |
| C[C@]1(c2cc(/C=C(\F)c3cnc(OCC(F)(F)C(F)F)cn3)ccc2F)N=C(N)[C@@]2(CF)CC[C@@H]1S2(=O)=O [Example 120, (1R,4R,5S)-2-amino-4-(2-fluoro-5-((Z)-2-fluoro-2-(5-(2,2,3,3-tetrafluoropropoxy)pyrazin-2-yl)vinyl)phenyl)-1-(fluoromethyl)-4-methyl-8-thia-3-azabicyclo[3.2.1]oct-2-ene 8,8-dioxide] | 37 nM | 542 nM | 258 nM | > 400000 nM |
| CC1(C)C(N)=N[C@](C)(c2cc(/C=C(\F)c3cnc(OCC4CCC4)cn3)ccc2F)CS1(=O)=O [Example 145, (R,Z)-5-amino-3-(5-(2-(5-(cyclobutylmethoxy)pyrazin-2-yl)-2-fluorovinyl)-2-fluorophenyl)-3,6,6-trimethyl-3,6-dihydro-2H-1,4-thiazine 1,1-dioxide] | 58 nM | 518 nM | 107 nM | 27500 nM |
| Cc1cnc(COc2cnc(/C(F)=C/c3ccc(F)c([C@@]4(C)N=C(N)N(C)S(=O)(=O)C45CC5)c3)cn2)o1 [Example 169, (8R)-8-(2-fluoro-5-((Z)-2-fluoro-2-(5-((5-methyl-1,3-oxazol-2-yl)methoxy)-2-pyrazinyl)ethenyl)phenyl)-5,8-dimethyl-4-thia-5,7-diazaspiro[2.5]oct-6-en-6-amine 4,4-dioxide] | 66 nM | 124 nM | 907 nM | 698000 nM |
| C#C[C@H](CC)Oc1cnc(/C(F)=C/c2ccc(F)c([C@]3(C)CS(=O)(=O)C(C)(C)C(N)=N3)c2)cn1 (single isomer, unassigned) [Example 178] | 3 nM | 22 nM | 232 nM | 77600 nM |
| COC[C@H](C)Oc1cnc(/C(F)=C/c2ccc(F)c([C@@]3(C)N=C(N)[C@@]4(CF)CC[C@@H]3S4(=O)=O)c2)cn1 [Example 131, (1R,4R,5S)-2-amino-4-(2-fluoro-5-((Z)-2-fluoro-2-(5-(((S)-1-methoxypropan-2-yl)oxy)pyrazin-2-yl)vinyl)phenyl)-1-(fluoromethyl)-4-methyl-8-thia-3-azabicyclo[3.2.1]oct-2-ene 8,8-dioxide] | 13 nM | 97 nM | 104 nM | > 400000 nM |

Continued, values first:

| IC50 (BACE1 [1]) | IC50 (BACE1 [2]) | IC50 (human recombinant BACE2) | IC50 (Cathepsin D (CatD)) | Structure (SMILES) |
| --- | --- | --- | --- | --- |
| 7 nM | 110 nM | 36 nM | 33800 nM | CN1C(N)=N[C@](C)(c2cc(/C=C(\F)c3ccc(C#CC4CC4)cn3)ccc2F)CS1(=O)=O [Example 251, (R,Z)-3-amino-5-(5-(2-(5-(cyclopropylethynyl)pyridin-2-yl)-2-fluorovinyl)-2-fluorophenyl)-2,5-dimethyl-5,6-dihydro-2H-1,2,4-thiadiazine 1,1-dioxide] |
| 552 nM | 4180 nM | 112 nM | 72500 nM | CN1C(N)=N[C@](C)(c2cc(/C=C(\F)c3cc4cc(Cl)ccc4cn3)ccc2F)CS1(=O)=O [Example 260, (5R)-5-(5-((Z)-2-(6-chloro-3-isoquinolinyl)-2-fluoroethenyl)-2-fluorophenyl)-2,5-dimethyl-5,6-dihydro-2H-1,2,4-thiadiazin-3-amine 1,1-dioxide] |
| 1 nM | 5 nM | 107 nM | 79500 nM | CC#C[C@H](C)Oc1cnc(/C(F)=C/c2ccc(F)c([C@]3(C)CS(=O)(=O)C(C)(C)C(N)=N3)c2)cn1 (single isomer, unassigned) [Example 208] |
| 11 nM | 188 nM | 523 nM | 64900 nM | C#C[C@H](C)Oc1cnc(/C(F)=C/c2ccc(F)c([C@]3(CF)CS(=O)(=O)C(C)(C)C(N)=N3)c2)cn1 [Example 195, (S)-5-amino-3-(5-((Z)-2-(5-((S)-but-3-yn-2-yloxy)pyrazin-2-yl)-2-fluorovinyl)-2-fluorophenyl)-3-(fluoromethyl)-6,6-dimethyl-3,6-dihydro-2H-1,4-thiazine 1,1-dioxide] |
| 26 nM | 38 nM | 6 nM | 57500 nM | CN1C(N)=N[C@](C)(c2cc(/C=C(\F)c3nc(C#N)cs3)ccc2F)CS1(=O)=O [Example 267, 2-((Z)-2-(3-((5R)-3-amino-2,5-dimethyl-1,1-dioxido-5,6-dihydro-2H-1,2,4-thiadiazin-5-yl)-4-fluorophenyl)-1-fluoroethenyl)-1,3-thiazole-4-carbonitrile] |
| 10 nM | 75 nM | 38 nM | 117000 nM | CC1(C)C(N)=N[C@](C)(c2cc(/C=C(\F)c3ncc(C(F)(F)F)cc3Cl)ccc2F)CS1(=O)=O [Example 264, (R,Z)-5-amino-3-(5-(2-(3-chloro-5-(trifluoromethyl)pyridin-2-yl)-2-fluorovinyl)-2-fluorophenyl)-3,6,6-trimethyl-3,6-dihydro-2H-1,4-thiazine 1,1-dioxide] |
